{"source": "patent US8927484B2", "about": "“Antiviral compounds” (Gilead Sciences, Inc., priority 2009, dated 2015)", "key": {"HCV NS3 protease": {"molecular_target": "T1, HCV NS3 protease (Hepatitis C virus genotype 1a, UniProt P27958)", "T1 construct": "2-10 nM of purified NS3 protease domains were pre-incubated", "T1 sequence (P27958 1027-1208)": "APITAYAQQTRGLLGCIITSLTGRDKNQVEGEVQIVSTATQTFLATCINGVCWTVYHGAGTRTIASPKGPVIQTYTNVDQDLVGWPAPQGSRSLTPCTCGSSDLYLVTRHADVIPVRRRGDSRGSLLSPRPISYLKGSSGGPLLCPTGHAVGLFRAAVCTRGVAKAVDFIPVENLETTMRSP", "experiment": "HCV NS3 Protease IC50 Determination (FRET)", "type": "biochemical", "details": "result in words"}, "[1]": {"test_system": "Replicon cells harboring H77 (genotype 1a) or Con1 (genotype 1b) HCV RNA and Renilla luciferase reporter", "experiment": "High Throughput Replicon Assay (HTBS)", "type": "cell-based", "description": "High Throughput Replicon Assay (HTBS)\nReplicon cells harboring H77 (genotype 1a) or Con1 (genotype 1b) HCV RNA and Renilla luciferase reporter were seeded in 384-well black plates at a density of 1.6×10^3 cells per well in 90 μl of DMEM culture medium, excluding G-418. Compounds were serially diluted in 100% DMSO and added to cells at a 1:225 dilution, achieving a final concentration of 0.44% DMSO in a total volume of 90 μL with a Biotek uFlow Workstation. Cell plates were incubated at 37° C. with 5% CO2 for 3 days, after which culture media were removed and cells were assayed for luciferase activity as a marker for replication level. Luciferase expression was measured using Dual-Glo luciferase assay reagents (Promega, Madison, Wis.). Briefly, 20 μL of Dual-Glo luciferase buffer was added to lyse the cells for 10 min and subsequently 20 μL of a diluted Dual-Glo Stop & Glo substrate (1:100) was added to each well. Luminescence signal was measured on a Perkin Elmer Envision Plate Reader after incubation for 10 minute. Luciferase levels were converted into percentages relative to the untreated controls (defined as 100%) and data were fit to the logistic dose response equation y=a/(1+(x/b)^c) using XLFit4 software (IDBS, Emeryville, Calif.). EC50 values were calculated from the resulting equations."}}, "data": [{"smiles": "CC[C@@H]1C[C@]1(NC(=O)[C@@H]1C[C@@H](OC(=O)N2Cc3cccc(F)c3C2)[C@H]2CCCC(=O)N21)C(=O)NS(=O)(=O)C1CC1", "note": "[Example 90]", "values": [{"measurement": "activity in the enzymatic assay", "setting": "HCV NS3 protease", "result": "fails to demonstrate optimal activity"}, {"measurement": "activity in the cellular assay", "setting": "[1]; result in words", "result": "fails to demonstrate optimal activity"}]}, {"smiles": "C=C[C@@H]1C[C@]1(NC(=O)[C@@H]1C[C@@H](Oc2cc(-c3nc(C(C)C)cs3)nc3c(Cl)c(OCCN4CCOCC4)ccc23)[C@H]2CN(C(=O)NC(C)(C)C)[C@H](C(C)C)C(=O)N21)C(=O)NS(=O)(=O)C1CC1", "note": "[Example 18]", "values": [{"measurement": "inhibition at 1 µM", "setting": "[1]; 72 h, read-out: INH @1 μM (Mean)", "result": "> 35", "unit": "%"}]}]}
